In PubChem BioAssay AID330 (DTP/NCI, 2004):
Where “and” joins values, the source holds several entries; their conditions need not be identical. Equal entries are not always repeated. Inconclusive results and toxic doses are left out. The calls were made as follows: active = survival T/C of 150% or more; inactive = T/C below 125% in these data. Square brackets hold non-standard residues; d marks the D form. Peptide text beside a SMILES is read from it. ξ: configuration not given here. ξY = NC(Cc1ccc(O)cc1)C(=O)O

Tested on: P388 leukemia ip, CD2F1 mice, survival T/C
Assay: NCI In Vivo Anticancer Drug Screen. Data for tumor model P388 Leukemia (intraperitoneal) in CD2F1 (CDF1) mice
Conditions: endpoint: median survival time, higher = longer survival
In short: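 Mice carrying the transplanted tumor received test compound or vehicle. Survival was recorded in each group, and the value is the treated-group measurement divided by that of the vehicle-treated control group.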

[1] = dose: 100.0 mg/kg/injection, schedule: Q04DX003 (ip), vehicle: saline
[2] = dose: 200.0 mg/kg/injection, schedule: Q04DX003 (ip), vehicle: saline
[3] = dose: 400.0 mg/kg/injection, schedule: Q04DX003 (ip), vehicle: saline
[4] = dose: 50.0 mg/kg/injection, schedule: Q01DX009 (ip), vehicle: saline
[5] = dose: 60.0 mg/kg/injection, schedule: Q01DX005 (ip), vehicle: saline with Tween-80
[6] = dose: 50.0 mg/kg/injection, schedule: Q01DX009 (ip), vehicle: Klucel (hydroxypropylcellulose) (HPC)
[7] = dose: 100.0 mg/kg/injection, schedule: Q01DX009 (ip), vehicle: Klucel (hydroxypropylcellulose) (HPC)
[8] = dose: 200.0 mg/kg/injection, schedule: Q01DX009 (ip), vehicle: Klucel (hydroxypropylcellulose) (HPC)
[9] = dose: 100.0 mg/kg/injection, schedule: Q01DX009 (ip), vehicle: saline
[10] = dose: 200.0 mg/kg/injection, schedule: Q01DX009 (ip), vehicle: saline
[11] = dose: 50.0 mg/kg/injection, schedule: Q01DX005 (ip), vehicle: saline with Tween-80
[12] = dose: 100.0 mg/kg/injection, schedule: Q01DX005 (ip), vehicle: saline with Tween-80
[13] = dose: 200.0 mg/kg/injection, schedule: Q01DX005 (ip), vehicle: saline with Tween-80

Measured: T/C

COc1ccc(N=Nc2c(C)nn(C(=S)SC)c2C)cc1
inactive: dose: 100.0 mg/kg/injection, schedule: Q04DX002 (ip), vehicle: saline with Tween-80 100 % of control | dose: 200.0 mg/kg/injection, schedule: Q04DX002 (ip), vehicle: saline with Tween-80 105 % of control | dose: 400.0 mg/kg/injection, schedule: Q04DX002 (ip), vehicle: saline with Tween-80 109 % of control

Cn1cnc2cc(NCCO)c([N+](=O)[O-])cc2c1=O
inactive: [1] 105 % of control | [2] 119 % of control | [3] 96 % of control

CN1CCN2c3ccccc3Cc3ccccc3C2C1 (configuration not stated)
inactive: dose: 6.25 mg/kg/injection, schedule: Q01DX009 (ip), vehicle: saline 90 % of control | dose: 12.5 mg/kg/injection, schedule: Q01DX009 (ip), vehicle: saline 94 % of control | dose: 25.0 mg/kg/injection, schedule: Q01DX009 (ip), vehicle: saline 105 % of control and 107 % of control | [4] 118 % of control and 119 % of control

N#CC(C(=O)C(=O)Nc1ccccc1)c1c(Cl)cccc1Cl (configuration not stated)
inactive: [5] 98 % of control | dose: 120.0 mg/kg/injection, schedule: Q01DX005 (ip), vehicle: saline with Tween-80 104 % of control | dose: 240.0 mg/kg/injection, schedule: Q01DX005 (ip), vehicle: saline with Tween-80 98 % of control

C[Si](C)(C)N([Si](C)(C)C)[Si](C)(C)C
inactive: dose: 50.0 mg/kg/injection, schedule: Q01DX009 (ip), vehicle: other 97 % of control | dose: 100.0 mg/kg/injection, schedule: Q01DX009 (ip), vehicle: other 98 % of control | dose: 200.0 mg/kg/injection, schedule: Q01DX009 (ip), vehicle: other 100 % of control

O=CNC(Cc1cccc(N(CCCl)CCCl)c1)C(=O)O (configuration not stated)
inactive: dose: 25.0 mg/kg/injection, schedule: Q01DX009 (ip), vehicle: saline sonified 95 % of control

CCSc1ccc2c3c(cccc13)C(=O)N(CCc1ccccn1)C2=O
inactive: [6] 98 % of control | [7] 99 % of control | [8] 92 % of control

COc1cc(NC(=O)SC2=NCCS2)cc(OC)c1
inactive: dose: 50.0 mg/kg/injection, schedule: Q01DX009 (ip), vehicle: saline with Tween-80 107 % of control | dose: 100.0 mg/kg/injection, schedule: Q01DX009 (ip), vehicle: saline with Tween-80 110 % of control | dose: 200.0 mg/kg/injection, schedule: Q01DX009 (ip), vehicle: saline with Tween-80 100 % of control

CC(=O)Oc1ccc(N2C(=O)C3C(C2=O)C2c4ccccc4C3C3CCCCN32)cc1 (configuration not stated) (tested in a mixture with another compound)
inactive: dose: 6.25 mg/kg/injection, schedule: Q01DX009 (ip), vehicle: water 101 % of control | dose: 12.5 mg/kg/injection, schedule: Q01DX009 (ip), vehicle: water 111 % of control | dose: 25.0 mg/kg/injection, schedule: Q01DX009 (ip), vehicle: water 104 % of control | dose: 50.0 mg/kg/injection, schedule: Q01DX009 (ip), vehicle: water 102 % of control | dose: 100.0 mg/kg/injection, schedule: Q01DX009 (ip), vehicle: water 104 % of control

Cc1ccc2ncccc2c1
inactive: dose: 50.0 mg/kg/injection, schedule: Q04DX003 (ip), vehicle: saline with Tween-80 102 % of control | dose: 100.0 mg/kg/injection, schedule: Q04DX003 (ip), vehicle: saline with Tween-80 101 % of control | dose: 200.0 mg/kg/injection, schedule: Q04DX003 (ip), vehicle: saline with Tween-80 98 % of control

NCC(=O)NC(Cc1ccc(O)cc1)C(=O)O (configuration not stated) (H-Gly-[ξY]-OH)
inactive: [9] 113 % of control | [1] 98 % of control | [10] 101 % of control | [2] 105 % of control | dose: 400.0 mg/kg/injection, schedule: Q01DX009 (ip), vehicle: saline 105 % of control | [3] 104 % of control

COc1ccc(C(=O)CSC(=S)N2CCCCC2)cc1
inactive: [6] 86 % of control | [7] 86 % of control

COc1ccc(C(O)Cc2ccccc2)cc1 (configuration not stated)
inactive: dose: 31.25 mg/kg/injection, schedule: Q01DX009 (ip), vehicle: saline + Tween-80 + alcohol 93 % of control | dose: 62.5 mg/kg/injection, schedule: Q01DX009 (ip), vehicle: saline + Tween-80 + alcohol 91 % of control | dose: 125.0 mg/kg/injection, schedule: Q01DX009 (ip), vehicle: saline + Tween-80 + alcohol 91 % of control | dose: 250.0 mg/kg/injection, schedule: Q01DX009 (ip), vehicle: saline + Tween-80 + alcohol 89 % of control

C=CCNC(=S)N/N=C(\C)c1cccc(C)n1
inactive: [11] 100 % of control | [12] 100 % of control | [13] 112 % of control

COC(=O)CS(=O)(=O)CS(=O)(=O)CC(=O)OC
inactive: [4] 107 % of control | [9] 100 % of control | [10] 97 % of control

COC(=O)c1nc(NN)[nH]c(=O)c1C
inactive: dose: 15.0 mg/kg/injection, schedule: Q01DX005 (ip), vehicle: saline with Tween-80 103 % of control | dose: 30.0 mg/kg/injection, schedule: Q01DX005 (ip), vehicle: saline with Tween-80 98 % of control | [5] 99 % of control and 97 % of control

O=C1NCCCN1C(=O)Nc1ccc(Cl)c(Cl)c1
inactive: [6] 101 % of control | [7] 91 % of control | [8] 95 % of control

O=C1Nc2cc3c(cc2C(=O)N2C/C(=N/O)CC12)OCO3 (configuration not stated)
inactive: [11] 107 % of control | [12] 99 % of control | [13] 101 % of control

C=C1[C@H]2C[C@H]2[C@]2(C)C=C3OC(=O)C(C)=C3C[C@@H]12
inactive: dose: 5.5 mg/kg/injection, schedule: Q01DX005 (ip), vehicle: Klucel (hydroxypropylcellulose) (HPC) 94 % of control | dose: 11.0 mg/kg/injection, schedule: Q01DX005 (ip), vehicle: Klucel (hydroxypropylcellulose) (HPC) 98 % of control | dose: 22.0 mg/kg/injection, schedule: Q01DX005 (ip), vehicle: Klucel (hydroxypropylcellulose) (HPC) 100 % of control | dose: 44.0 mg/kg/injection, schedule: Q01DX005 (ip), vehicle: Klucel (hydroxypropylcellulose) (HPC) 94 % of control | dose: 80.0 mg/kg/injection, schedule: Q01DX005 (ip), vehicle: Klucel (hydroxypropylcellulose) (HPC) 91 % of control

CC1(C)Nc2ccccc2C(c2ccccc2)=NC1=O
inactive: dose: 60.0 mg/kg/injection, schedule: Q01DX005 (ip), vehicle: Klucel (hydroxypropylcellulose) (HPC) 101 % of control and 102 % of control | dose: 120.0 mg/kg/injection, schedule: Q01DX005 (ip), vehicle: Klucel (hydroxypropylcellulose) (HPC) 105 % of control and 98 % of control | dose: 240.0 mg/kg/injection, schedule: Q01DX005 (ip), vehicle: Klucel (hydroxypropylcellulose) (HPC) 104 % of control and 91 % of control

C=C(C(C)=O)c1ccccc1
inactive: dose: 25.0 mg/kg/injection, schedule: Q01DX009 (ip), vehicle: Klucel (hydroxypropylcellulose) (HPC) 100 % of control | [6] 98 % of control | [7] 100 % of control | [8] 107 % of control | dose: 400.0 mg/kg/injection, schedule: Q01DX009 (ip), vehicle: Klucel (hydroxypropylcellulose) (HPC) 107 % of control

CC(O)CCCC(C)O (configuration not stated)
inactive: [4] 102 % of control | [9] 112 % of control | [10] 109 % of control

N#CCCCCC/C=C/CCCCCCC1C=CCC1 (configuration not stated)
inactive: dose: 100.0 mg/kg/injection, schedule: Q01DX001 (ip), vehicle: saline 100 % of control | dose: 200.0 mg/kg/injection, schedule: Q01DX001 (ip), vehicle: saline 100 % of control | dose: 400.0 mg/kg/injection, schedule: Q01DX001 (ip), vehicle: saline 96 % of control
